Experimental findings from US11896592B2, “Certain triazolopyridines and triazolopyrazines, compositions thereof and methods of use therefor” (Hutchison Medipharma Limited, priority 2009, dated 2024) are described below.

Each structure is given as a SMILES string.

The target in the test is T1, Recombinant human Met (c-Met) (Homo sapiens, UniProt P08581).
T1 construct: purchased Invitrogen PV3143
Briefly: Inhibition of c-Met kinase activity using Transcreener FP assay. The format is biochemical. As to conditions: Poly E4Y substrate, 28° C. 45 min, read-out: IC50, inhibition of c-Met kinase activity. As to the method: Compound dilution: dilute test articles to 5 folds of the testing concentration using 20% DMSO.
The mixture is kept on ice until use;
Prepare ATP standard curve stock as following:
3. Enzymatic reaction: in 96-well reaction plate
Add 5 μL of test article or 5 μL of 20% DMSO or 5 μL of 500 mM EDTA;
Add 10 μL of Enzyme/Substrate stock;
Add 10 μL of ATP Diluent to begin the enzyme reaction and mix on plate shaker;
Add 5 μL of 20% DMSO, 10 μL of assay buffer and 10 μL of ATP standard curve stock into standard curve wells;
Gently shake at 28° C. for 45 min.
4. Stop reaction and detect ADP
Prepare Detection Mix: According to the procedures described in the Assay kit, Alexa633 tracer, ADP antibody and stop & detect buffer were added into H2O and mixed thoroughly. Prepare Tracer Only control: According to the procedures described in the Assay kit, ADP Alexa633 tracer and stop & detect buffer were added to H2O and mixed throughly.
Prepare No Tracer control: According to the procedures described in the Assay kit, the stop & detect buffer was diluted with H2O;
Add 25 μL of detection mix, Tracer Only control and No Tracer control into corresponding wells, respectively;
The reaction plate was gently shaken at 28° C. for 1 h;
Florescence polarization (FP) was measured on TECAN F500. Excitation wavelength: 610 nm, Emission wavelength: 670 nm.
Compound well [ADP] represents the ADP concentration of the compound well. Positive control well [ADP] represents the ADP concentration of the 20% DMSO well. Conversion of mP value to ADP concentration is based on the formula which is determined by standard curve.
IC50: calculated using XL-Fit 2.0 software.

T1 sequence (P08581 956-1390 limits assumed): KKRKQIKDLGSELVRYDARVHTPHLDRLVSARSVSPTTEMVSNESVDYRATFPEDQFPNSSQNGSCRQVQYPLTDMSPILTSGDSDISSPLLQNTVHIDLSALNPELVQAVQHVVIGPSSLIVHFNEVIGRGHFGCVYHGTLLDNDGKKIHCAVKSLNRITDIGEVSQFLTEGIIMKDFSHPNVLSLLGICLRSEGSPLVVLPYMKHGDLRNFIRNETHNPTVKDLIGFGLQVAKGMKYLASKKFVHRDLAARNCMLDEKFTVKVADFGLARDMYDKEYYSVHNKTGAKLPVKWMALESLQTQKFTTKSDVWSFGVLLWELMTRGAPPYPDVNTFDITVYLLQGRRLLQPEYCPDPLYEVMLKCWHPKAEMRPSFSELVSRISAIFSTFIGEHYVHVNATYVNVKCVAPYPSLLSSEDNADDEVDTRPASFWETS

For `CNC(=O)c1ccnc(Nc2cnc3nnn(Cc4ccc5ncccc5c4)c3n2)c1` [Compound 174], the IC50 (usually the point on the concentration scale where inhibition reaches its midpoint) was in the range of 100 to 1000 nM. In the case of `Cc1cnc(Nc2cnc3nnn(Cc4ccc5ncccc5c4)c3n2)s1` [Compound 176], the IC50 fell in the range of 1 to 100 nM.

Turning to `CN(c1ccncc1)c1cnc2nnn(Cc3ccc4ncccc4c3)c2n1` [Compound 177], the IC50 was 1 to 100 nM.

As to `COc1cc(Nc2ccc3nnn(Cc4ccc5ncccc5c4)c3n2)ccn1` [Compound 179], the IC50 was 1 to 100 nM.

Turning to `COc1cncc(Nc2ccc3nnn(Cc4ccc5ncccc5c4)c3n2)c1` [Compound 180], the IC50 is 1 to 100 nM.

Take `Cc1cccc(Nc2ccc3nnn(Cc4ccc5ncccc5c4)c3n2)n1` [Compound 181]: the IC50 was 100 to 1000 nM.

Regarding `Cc1cccc(Nc2ccc3nnn(Cc4ccc5ncccc5c4)c3n2)n1` [Compound 182], the IC50 was 1 to 100 nM. `COc1ccnc(Nc2cnc3nnn(Cc4ccc5ncccc5c4)c3n2)c1` [Compound 183]: the IC50 was 1 to 100 nM. As to `COCCOc1ccnc(Nc2cnc3nnn(Cc4ccc5ncccc5c4)c3n2)c1` [Compound 185], the IC50 lay in the range of 1 to 100 nM. As to `COCCOc1cc(Nc2cnc3nnn(Cc4ccc5ncccc5c4)c3n2)ccn1` [Compound 186], the IC50 was 1 to 100 nM. For the molecule `CNc1ccc(Nc2cnc3nnn(Cc4ccc5ncccc5c4)c3n2)cn1` [Compound 187], the 50% inhibitory concentration (IC50) fell in the range of 100 to 1000 nM.

In the case of `Cc1cccnc1Nc1cnc2nnn(Cc3ccc4ncccc4c3)c2n1` [Compound 188], the IC50 is 1 to 100 nM. For `Cn1ccc(Nc2ccc3nnn(Cc4ccc5ncccc5c4)c3n2)n1` [Compound 189], the IC50 lay within 1 to 100 nM. In the case of `N#Cc1cc(Nc2cnc3nnn(Cc4ccc5ncccc5c4)c3n2)ccn1` [Compound 190], the IC50 was in the range of 1 to 100 nM. `Cc1cc(Nc2cnc3nnn(Cc4ccc5ncccc5c4)c3n2)n[nH]1` [Compound 191]: the IC50 fell in the range of 1 to 100 nM. Next, `CNC(=O)c1cncc(Nc2cnc3nnn(Cc4ccc5ncccc5c4)c3n2)c1` [Compound 192]: 1 to 100 nM; `c1cnc2ccc(Cn3nnc4ncc(Nc5cncc(N6CCOCC6)c5)nc43)cc2c1` [Compound 193]: 1 to 100 nM. On to `OCCOc1cc(Nc2cnc3nnn(Cc4ccc5ncccc5c4)c3n2)ccn1` [Compound 194], for which the IC50 was in the range of 1 to 100 nM. As for `COc1cc(Nc2cnc3nnn(Cc4ccc5ncccc5c4)c3n2)ccn1` [Compound 195], the IC50 lay within 1 to 100 nM. Next, `Cc1ccnc(Nc2cnc3nnn(Cc4ccc5ncccc5c4)c3n2)c1` [Compound 196]: 1 to 100 nM; `COc1cccc(Nc2cnc3nnn(Cc4ccc5ncccc5c4)c3n2)n1` [Compound 197]: 1 to 100 nM; `c1cnc2ccc(Cn3nnc4ncc(Nc5cc[nH]n5)nc43)cc2c1` [Compound 198]: 1 to 100 nM.

As to `Cc1coc(Nc2cnc3nnn(Cc4ccc5ncccc5c4)c3n2)n1` [Compound 199], the IC50 was in the range of 1 to 100 nM. In the case of `Cc1cc(Nc2cnc3nnn(Cc4ccc5ncccc5c4)c3n2)no1` [Compound 200], the IC50 fell in the range of 1 to 100 nM. Regarding `OCCOc1ccnc(Nc2cnc3nnn(Cc4ccc5ncccc5c4)c3n2)c1` [Compound 201], the IC50 is 100 to 1000 nM.

As for `COCCOc1cccc(Nc2cnc3nnn(Cc4ccc5ncccc5c4)c3n2)c1` [Compound 202], the IC50 fell in the range of 1 to 100 nM. For the molecule `COCCNc1cncc(Nc2cnc3nnn(Cc4ccc5ncccc5c4)c3n2)c1` [Compound 203], the half-inhibitory concentration (IC50) was 1 to 100 nM.

On to `COCCNc1ccnc(Nc2cnc3nnn(Cc4ccc5ncccc5c4)c3n2)c1` [Compound 204], for which the IC50 was 100 to 1000 nM.

For the molecule `OCCNc1ccnc(Nc2cnc3nnn(Cc4ccc5ncccc5c4)c3n2)c1` [Compound 205], the IC50 is 100 to 1000 nM. Next, `O[C@@H]1CCC[C@H]1Nc1ccnc(Nc2cnc3nnn(Cc4ccc5ncccc5c4)c3n2)c1` [Compound 206]: 100 to 1000 nM; `O[C@@H]1CCC[C@H]1Nc1cc(Nc2cnc3nnn(Cc4ccc5ncccc5c4)c3n2)ccn1` [Compound 207]: 1 to 100 nM; `COCCOc1ccncc1Nc1cnc2nnn(Cc3ccc4ncccc4c3)c2n1` [Compound 208]: 100 to 1000 nM.

`COCCNc1ccncc1Nc1cnc2nnn(Cc3ccc4ncccc4c3)c2n1` [Compound 209]: the IC50 fell in the range of 100 to 1000 nM.

Take `COc1ccncc1Nc1cnc2nnn(Cc3ccc4ncccc4c3)c2n1` [Compound 210]: the IC50 lay in the range of 1 to 100 nM. Take `c1cncc(Nc2cnc3nnn(Cc4ccc5ncccc5c4)c3n2)c1` [Compound 212]: the IC50 fell in the range of 1 to 100 nM. Turning to `COc1cccnc1Nc1cnc2nnn(Cc3ccc4ncccc4c3)c2n1` [Compound 213], the IC50 was in the range of 1 to 100 nM.

Turning to `c1cnc2ccc(Cn3nnc4ccc(-n5ccnc5)nc43)cc2c1` [Compound 214], the IC50 lay in the range of 1 to 100 nM.

As to `N#Cc1cc(Nc2ccc3nnn(Cc4ccc5ncccc5c4)c3n2)ccn1` [Compound 215], the IC50 fell in the range of 1 to 100 nM. For the molecule `COCCOc1ncccc1Nc1cnc2nnn(Cc3ccc4ncccc4c3)c2n1` [Compound 216], the IC50 lay within 100 to 1000 nM. Consider `c1cnc2ccc(Cn3nnc4ncc(Nc5ccnc(O[C@H]6CCOC6)c5)nc43)cc2c1` [Compound 217], for which the IC50 is 1 to 100 nM. `c1cnc2ccc(Cn3nnc4ncc(Nc5ccnc(O[C@@H]6CCOC6)c5)nc43)cc2c1` [Compound 218]: the 50% inhibitory concentration (IC50) was in the range of 1 to 100 nM. `O[C@@H]1CCC[C@H]1Nc1ccnc(Nc2ccc3nnn(Cc4ccc5ncccc5c4)c3n2)c1` [Compound 219]: the 50% inhibitory concentration (IC50) lay within 100 to 1000 nM. For the molecule `FC(F)(F)c1ccnc(Nc2cnc3nnn(Cc4ccc5ncccc5c4)c3n2)c1` [Compound 220], the IC50 was in the range of 1 to 100 nM. Next, `FC(F)(F)c1cccc(Nc2cnc3nnn(Cc4ccc5ncccc5c4)c3n2)n1` [Compound 221]: 1 to 100 nM; `c1cnc2ccc(Cn3nnc4ncc(Nc5ccnc(NC6CCOC6)c5)nc43)cc2c1` (stereo not shown) [Compound 222]: 1 to 100 nM; `N#Cc1ccnc(Nc2cnc3nnn(Cc4ccc5ncccc5c4)c3n2)c1` [Compound 223]: 1 to 100 nM. Regarding `Cc1cc(Nc2cnc3nnn(Cc4ccc5ncccc5c4)c3n2)cc(C)n1` [Compound 224], the IC50 was 1 to 100 nM.

On to `N#Cc1ccc(Nc2cnc3nnn(Cc4ccc5ncccc5c4)c3n2)nc1` [Compound 225], for which the IC50 was 1 to 100 nM.

`OC1COCC1Nc1ccnc(Nc2cnc3nnn(Cc4ccc5ncccc5c4)c3n2)c1` (stereo not shown) [Compound 226]: the half-inhibitory concentration (IC50) was in the range of 1 to 100 nM.

Regarding `COCCOc1cccc(Nc2cnc3nnn(Cc4ccc5ncccc5c4)c3n2)n1` [Compound 227], the IC50 was 1 to 100 nM. On to `OC1COCC1Nc1cc(Nc2cnc3nnn(Cc4ccc5ncccc5c4)c3n2)ccn1` (stereo not shown) [Compound 228], for which the IC50 lay in the range of 1 to 100 nM. In the case of `CN1CC[C@H](Nc2cc(Nc3cnc4nnn(Cc5ccc6ncccc6c5)c4n3)ccn2)C1` [Compound 229], the IC50 is 1 to 100 nM. As to `c1cnc2ccc(Cn3nnc4ncc(Nc5ccnc(N6CCOCC6)c5)nc43)cc2c1` [Compound 230], the IC50 was in the range of 1 to 100 nM. `CNc1cc(Nc2cnc3nnn(Cc4ccc5ncccc5c4)c3n2)ccn1` [Compound 231]: the IC50 was in the range of 100 to 1000 nM. As to `COc1ccc(Nc2ccc3nnn(Cc4ccc5ncccc5c4)c3n2)nc1` [Compound 234], the IC50 lay in the range of 100 to 1000 nM. For `Cc1cc(Nc2ccc3nnn(Cc4ccc5ncccc5c4)c3n2)ccn1` [Compound 235], the IC50 is 1 to 100 nM. Turning to `c1cnc2ccc(Cn3nnc4ccc(Nc5ccncc5)nc43)cc2c1` [Compound 236], the IC50 was in the range of 100 to 1000 nM.

For the molecule `c1cncc(Nc2ccc3nnn(Cc4ccc5ncccc5c4)c3n2)c1` [Compound 237], the IC50 lay within 1 to 100 nM. Next, `CN(c1ccnc(C#N)c1)c1cnc2nnn(Cc3ccc4ncccc4c3)c2n1` [Compound 239]: 1 to 100 nM; `OCCn1cc(Nc2cnc3nnn(Cc4ccc5ncsc5c4)c3n2)cn1` [Compound 240]: 1 to 100 nM; `O[C@@H]1CCC[C@H]1Nc1ccc2nnn(Cc3ccc4ncccc4c3)c2n1` [Compound 241]: 100 to 1000 nM.

For the molecule `OCC1CCN(c2ccc3nnn(Cc4ccc5ncccc5c4)c3n2)CC1` [Compound 245], the IC50 fell in the range of 1 to 100 nM. In the case of `OC1CCN(c2ccc3nnn(Cc4ccc5ncccc5c4)c3n2)C1` (stereo not shown) [Compound 246], the concentration for half-maximal inhibition (IC50) is 1 to 100 nM. Next, `OC1(CNc2ccc3nnn(Cc4ccc5ncccc5c4)c3n2)CCCCC1` [Compound 247]: 100 to 1000 nM. Regarding `c1cnc2ccc(Cn3nnc4ncc(Sc5ccncc5)nc43)cc2c1` [Compound 248], the half-maximal inhibitory concentration (IC50) was 1 to 100 nM. On to `c1cnc2ccc(Cn3nnc4ccc(OC5CCOCC5)nc43)cc2c1` [Compound 249], for which the IC50 was in the range of 100 to 1000 nM.

Take `c1cnc2ccc(Cn3nnc4ncc(Oc5ccncc5)nc43)cc2c1` [Compound 250]: the IC50 lay within 1 to 100 nM.

Take `c1ccc(Sc2cnc3nnn(Cc4ccc5ncccc5c4)c3n2)nc1` [Compound 252]: the IC50 was in the range of 1 to 100 nM.

For the molecule `c1cnc2ccc(Cn3nnc4ccc(NC5CCOCC5)nc43)cc2c1` [Compound 253], the IC50 lay in the range of 1 to 100 nM. Regarding `Clc1cncc(Oc2cnc3nnn(Cc4ccc5ncccc5c4)c3n2)c1` [Compound 254], the 50% inhibitory concentration (IC50) lay in the range of 1 to 100 nM.
